# Experimental data reported in patent publication EP0994109A2, “1-(3-(1-Pyrrolidinyl)propyl)-3-ethylcarbodiimide and a solid phase coupling agent” (ELI LILLY AND COMPANY, priority 1995, dated 1997).
# Where a name gives a salt, the structure may show the parent alone.
# Test system: neuronal protein extravasation
# Test: Protein extravasation in dura after electrical stimulation of the trigeminal ganglion
# Assay type: in vivo, rats or guinea pigs
# Details: dose that inhibited the extravasation by 50%, approximated from dose-response curve
# Protocol: Harlan Sprague-Dawley rats (225-325 g) or guinea pigs from Charles River Laboratories (225-325 g) were anesthetized with sodium pentobarbital intraperitoneally (65 mg/kg or 45 mg/kg respectively) and placed in a stereotaxic frame (David Kopf Instruments) with the incisor bar set at -3.5 mm for rats or -4.0 mm for guinea pigs. Following a midline sagital scalp incision, two pairs of bilateral holes were drilled through the skull (6 mm posteriorly, 2.0 and 4.0 mm laterally in rats; 4 mm posteriorly and 3.2 and 5.2 mm laterally in guinea pigs, all coordinates referenced to bregma). Pairs of stainless steel stimulating electrodes (Rhodes Medical Systems, Inc.) were lowered through the holes in both hemispheres to a depth of 9 mm (rats) or 10.5 mm (guinea pigs) from dura.
# The femoral vein was exposed and a dose of the test compound was injected intravenously (1 mL/kg). Approximately 7 minutes later, a 50 mg/kg dose of Evans Blue, a fluorescent dye, was also injected intravenously. The Evans Blue complexed with proteins in the blood and functioned as a marker for protein extravasation. Exactly 10 minutes post-injection of the test compound, the left trigeminal ganglion was stimulated for 3 minutes at a current intensity of 1.0 mA (5 Hz, 4 msec duration) with a Model 273 potentiostat/ galvanostat (EG&G Princeton Applied Research).
# Fifteen minutes following stimulation, the animals were killed and exsanguinated with 20 mL of saline. The top of the skull was removed to facilitate the collection of the dural membranes. The membrane samples were removed from both hemispheres, rinsed with water, and spread flat on microscopic slides. Once dried, the tissues were coverslipped with a 70% glycerol/water solution.
# A fluorescence microscope (Zeiss) equipped with a grating monochromator and a spectrophotometer was used to quantify the amount of Evans Blue dye in each sample. An excitation wavelength of approximately 535 nm was utilized and the emission intensity at 600 nm was determined. The microscope was equipped with a motorized stage and also interfaced with a personal computer. This facilitated the computer-controlled movement of the stage with fluorescence measurements at 25 points (500 µm steps) on each dural sample. The mean and standard deviation of the measurements was determined by the computer.
# The extravasation induced by the electrical stimulation of the trigeminal ganglion was an ipsilateral effect (i.e. occurs only on the side of the dura in which the trigeminal ganglion was stimulated). This allows the other (unstimulated) half of the dura to be used as a control. The ratio of the amount of extravasation in the dura from the stimulated side compared to the unstimulated side dura was calculated. Saline controls yielded a ratio of approximately 2.0 in rats and 1.8 in guinea pigs. […]
row,Compound,i.v. ID50
1,"Cn1cc(CCN2CCC(c3c[nH]c4ccc(F)cc34)CC2)cn1 [Compound II, 5-fluoro-3-<1-<2-<1-methyl-1H-pyrazol-4-yl>ethyl>-4-piperidinyl>-1H-indole hydrochloride]",8.6e-10 mmol/kg
2,"O=C(O)C(=O)O.Oc1ccc2[nH]cc(C3CCNCC3)c2c1 [Compound III, 5-hydroxy-3-(4-piperidinyl)-1H-indole oxalate]",8.9e-09 mmol/kg
3,"CCN(CC)C1CCc2cccc(Cl)c2C1.Cl (centres unmarked) [Compound IV, 8-chloro-2-diethylamino-1,2,3,4-tetrahydronaphthalene hydrochloride]",1.2e-07 mmol/kg
4,"CN(C)C1CCc2[nH]c3ccc(O)cc3c2C1 (centres unmarked) [Compound V, 6-hydroxy-3-dimethylamino-1,2,3,4-tetrahydrocarbazole]",8.7e-09 mmol/kg
5,"CNS(=O)(=O)Cc1ccc2[nH]cc(CCN(C)C)c2c1.O=C(O)CCC(=O)O [Compound I, 3-[2-(dimethylamino)ethyl]-N-methyl-1H-indole-5-methanesulfonamide butane-1,4-dioate (1:1)]",2.6e-08 mmol/kg
